These results are taken from US11453667B2, “Pyridone-pyrimidine derivative acting as KRASG12C mutein inhibitor” (MEDSHINE DISCOVERY INC., priority 2018, dated 2022).

The IC50 is the concentration that inhibits the measured activity by half. Lower therefore signals higher potency. As usually defined, the AUC is concentration integrated over time. Usually clearance stands for the volume of plasma or blood freed of the substance per unit of time. What is called Vd is a proportionality between amount in the body and measured concentration, not a real space. As a reminder, the Cmax is the peak of the concentration-time curve. Usually Tmax stands for the time at which the peak concentration occurs. A word on the bioavailability: it is dose-corrected exposure relative to a reference, in per cent.

Read-outs that look alike come from different tables or passages of the source.

Data set [1] has as its system NCI-H358 human non-small cell lung cancer cells with KRAS G12C mutation. The data set is described as follows: Cell experiment: anti-proliferative activity, CellTiter-Glo, NCI-H358. Type of data set: cell-based. Conditions: Homo sapiens, NCI-H358, 120 h, 5 days culture. As to the method:
(§1) This experiment is intended to verify that the compounds of the present invention have an inhibitory effect on the proliferation of NCI-H358 human non-small cell lung cancer cells with KRAS G12C mutation, MIA PaCa2 human pancreatic cancer cells with KRAS G12C mutation and wild-type A375 human malignant melanoma cells.
(§2) 40 μl of phosphate buffer was added to the peripheral wells of three 384-well microplates respectively, and 40 μl of cell suspension to be tested was added to the other wells of each plate respectively (plate 1: NCI-H358 cell suspension containing 500 NCI-H358 cells; plate 2: MIAPaCa2 cell suspension containing 300 MIAPaCa2 cells; plate 3: A375 cell suspension containing 300 A375 cells). The three cell plates were then placed in a carbon dioxide incubator and incubated overnight. Echo was used to perform a 3-fold gradient dilution of the compounds to be tested, and each compound was diluted with 10 concentration gradients (diluted from 50 μM to 0.003 μM), 100 nl of which was respectively added to the corresponding wells of the cell plates; after dosing, 40 μL of phosphate buffer was added to each well of rows A and P and columns 1 and 24, and then the cell plates were put back to the carbon dioxide incubator for culturing for 5 days. 20 μl of Promega CellTiter-Glo reagent per well was added to the cell plates, which was shaken at room temperature for 10 minutes in the dark to stabilize the luminescence signal. A PerkinElmer Envision multi-label analyzer was used for reading.
(§3) Data analysis: IC50 results were analyzed by GraphPad Prism 5.0 software […].

Data set [2] relates to wild-type A375 human malignant melanoma cells. Put plainly: Cell experiment: anti-proliferative activity, CellTiter-Glo, A375. In kind it is cell-based. The following applies: Homo sapiens, A-375, 120 h, 5 days culture. As to the method: as §1, §2, §3
Data set [3] in a line: Rat pharmacokinetic evaluation experiment. In kind it is in vivo. Conditions: plasma, male SD rats; for AUC: read-out: AUC (exposure). The text has this: To determine the drug concentrations in plasma at different times after intravenous and intragastric administration of the test compounds to the rats by using the LC/MS/MS method and using male SD rats as the test animals; To study the pharmacokinetic behaviors of the test compounds in rats and to evaluate the pharmacokinetic characteristics thereof.
Experiment scheme: 10 healthy adult male SD rats were used as experimental animals and divided into 4 groups according to the principle of similar body weight, with 2 in each group of the group IV (two groups) and 3 in each group of the group PO (two groups). The animals were purchased from Beijing Vital River Laboratory Animal Technology Co., Ltd.
Group IV: an appropriate amount of samples were weighed; an appropriate amount of DMSO, PEG400 and water were added successively thereto according to the volume ratio of 10:60:30; and stirring was performed under sonication to reach a clear state of 1.5 mg/mL.
Group PO: an appropriate amount of samples were weighed; an appropriate amount of DMSO, PEG400 and water were added successively thereto according to the volume ratio of 10:60:30; and stirring was performed under sonication to reach a clear state of 1.0 mg/mL.
After fasting overnight, each rat in the group IV was administered intravenously with a volume of 2 mL/kg and a dose of 3 mg/kg; each rat in the group PO was administered intragastrically with a volume of 10 mL/kg and a dose of 10 mg/kg.
After each of the male SD rats in the group IV was administrated with the test compounds, 200 ul of blood samples were collected at 0.0833, 0.25, 0.5, 1, 2, 4, 6, 8 and 24 hours, and were placed in a commercial anticoagulation tube pre-loaded with EDTA-K2. After each rat in the group PO was administrated with the test compounds, 200 ul of blood samples were collected at 0.25, 0.5, 1, 2, 4, 6, 8 and 24 hours respectively, and were placed in a commercial anticoagulation tube pre-loaded with EDTA-K2. The test tube was centrifuged for 15 minutes to separate the plasma and stored at −60° C. 2 hours after administration, the animals can be fed. The content of the test compounds in plasma was determined by the LC/MS/MS method after intravenous and intragastric administration to the rats. The linear range of the method was from 2.00 to 6000 nM; plasma samples were analyzed after treatment of precipitating proteins by acetonitrile.
Note: Cl: clearance rate; Vd: volume of distribution; AUC: exposure; T1/2: half-life; Cmax: maximum compound concentration after oral administration; Tmax: time to reach Cmax; F: bioavailability.

`C=CC(=O)N1CCN(c2ncnc3c(=O)n(-c4c(N)c(Cl)cc(Cl)c4F)c(C(F)(F)F)cc23)CC1` [Example 49]: the half-maximal inhibitory concentration (IC50) in data set [1] worked out at 0.05 µM. In data set [2], the midpoint of inhibition, the IC50, lay at 7.32 µM. The exposure (AUC) in data set [3] (IV 3 mg/kg) was found to be 4.62 µM·h. In addition, in data set [3] (IV 3 mg/kg, read-out: Cl (clearance rate)), the clearance stood at 20.6 mL/min/kg. The half-life in data set [3] (IV 3 mg/kg, read-out: T1/2 (half-life) (converted)) is 0.94 h. Further, in data set [3] (IV 3 mg/kg, read-out: Vd (volume of distribution)), the Vd was 2.15 L/kg. For the same molecule, in data set [3] (PO 10 mg/kg), the highest level (Cmax) was 2110 nM, the time of peak concentration (Tmax) worked out at 1.67 h and the area under the curve (AUC) turned out to be 7.74 µM·h. For the same molecule, in data set [3] (PO 10 mg/kg, read-out: F (bioavailability)), the bioavailability was 52%.
